Results from patent publication US8853246B2 (Dow AgroSciences LLC, priority 2009, dated 2014).
Read-outs that look alike come from different tables or passages of the source.

Assays:
[1] = tested on: Green Peach Aphid (Myzus Persicae); assay: Insecticidal test for green peach aphid in foliar spray assay (col. MYZUPE); format: in vivo; settings: for pest or weed control at 200 ppm: Myzus persicae, 72 h, read-out: MYZUPE 200 ppm (Corrected % Control, rating)
Experimental: (§1) The compounds were tested against cotton aphid, green peach aphid, and sweet potato whitefly using procedures described in the following examples and reported in Table 2.
(§2) In each case of Table 2, the rating scale is as follows at 200 ppm.
Insecticidal Test for Green Peach Aphid (Myzus Persicae) in Foliar Spray Assay
Cabbage seedlings grown in 3-inch pots, with 2-3 small (3-5 cm) true leaves, were used as test substrate. The seedlings were infested with 20-50 green peach aphids (wingless adult and nymph) one day prior to chemical application. Four pots with individual seedlings were used for each treatment. Compounds (2 mg) were dissolved in 2 mL of acetone/methanol (1:1) solvent, forming stock solutions of 1000 ppm. The stock solutions were diluted 5× with 0.025% Tween 20 in H2O to obtain a test solution at 200 ppm. A hand-held Devilbiss sprayer was used for spraying a solution to both sides of cabbage leaves until runoff. Reference plants (solvent check) were sprayed with the diluent only. Treated plants were held in a holding room for three days at approximately 25° C. and 40% relative humidity (RH) prior to grading. Evaluation was conducted by counting the number of live aphids per plant under a microscope. Corrected % Control=100*(X−Y)/X • where X=No. of live aphids on solvent check plants • Y=No. of live aphids on treated plants

[2] = tested on: Sweetpotato Whitefly-Crawler (Bemisia Tabaci); assay: Insecticidal test for sweetpotato whitefly-crawler in foliar spray assay (col. BEMITA); format: in vivo; settings: for pest or weed control at 200 ppm: Bemisia tabaci, read-out: BEMITA 200 ppm (Corrected % Control, rating)
Experimental: as §1, §2
Insecticidal Test for Sweetpotato Whitefly-Crawler (Bemisia Tabaci) in Foliar Spray Assay
Cotton plants grown in 3-inch pots, with 1 small (3-5 cm) true leaf, were used as test substrate. The plants were placed in a room with whitefly adults. Adults were allowed to deposit eggs for 2-3 days. After a 2-3 day egg-laying period, plants were taken from the adult whitefly room. Adults were blown off leaves using a hand-held Devilbiss sprayer (23 psi). Plants with egg infestation (100-300 eggs per plant) were placed in a holding room for 5-6 days at 82° F. and 50% RH for egg hatch and crawler stage to develop. Four cotton plants were used for each treatment. Compounds (2 mg) were dissolved in 1 mL of acetone solvent, forming stock solutions of 2000 ppm. The stock solutions were diluted 10× with 0.025% Tween 20 in H2O to obtain a test solution at 200 ppm. A hand-held Devilbiss sprayer was used for spraying a solution to both sides of cotton leaf until runoff. Reference plants (solvent check) were sprayed with the diluent only. Treated plants were held in a holding room for 8-9 days at approximately 82° F. and 50% RH prior to grading. Evaluation was conducted by counting the number of live nymphs per plant under a microscope. Insecticidal activity was measured by using Abbott's correction formula and presented in Table 2 (see col. “BEMITA”): Corrected % Control=100*(X−Y)/X • where X=No. of live nymphs on solvent check plants • Y=No. of live nymphs on treated plants Pesticidally Acceptable Acid Addition Salts, Salt Derivatives, Solvates, Ester Derivatives, Polymorphs, Isotopes and Radionuclides

Structure (SMILES) | pest or weed control at 200 ppm ([1]; green peach aphid) [%] | pest or weed control at 200 ppm ([2]; sweetpotato whitefly-crawler) [%] | pest or weed control at 200 ppm ([1]; Abbott's correction formula) [%] | pest or weed control at 200 ppm ([2]; Abbott's correction formula) [%] | further results
Cc1nc(-c2cccnc2)sc1N(C)C(=O)C1=CC(=O)CC(C)(C)O1 [Compound 327] | < 80 | < 80 |  |  | 
CSCC(C)C(=O)Nc1sc(-c2cncc(C)c2)nc1C (stereo not drawn) [Compound 171, 2-methyl-N-[4-methyl-2-(5-methyl-pyridin-3-yl)-thiazol-5-yl]-3-methylsulfanyl-propionamide] | 80 to 100 | < 80 |  |  | 
CSCC(C)C(=O)Nc1sc(-c2cncc(Cl)c2)nc1C (stereo not drawn) [Compound 17, N-[2-(5-chloropyridin-3-yl)-4-methyl-thiazol-5-yl]-2-methyl-3-methylsulfanyl-propionamide] | 80 to 100 | 80 to 100 |  |  | 
CN(C(=O)C(F)(F)F)c1sc(-c2cccnc2)nc1-c1ccccc1 [Compound 4, 2,2,2-Trifluoro-N-methyl-N-(4-phenyl-2-pyridin-3-yl-thiazol-5-yl)-acetamide] | < 80 | < 80 |  |  | 
CCN(C(=O)C(C)C)c1sc(-c2cncc(F)c2)nc1Cl [Compound 275] | 80 to 100 | 80 to 100 |  |  | 
Cc1nc(-c2cccnc2)sc1N(C)C(=O)OC(C)(C)C(F)(F)F [Compound 492] |  |  | < 80 | 80 to 100 | 
Cc1nc(-c2cccnc2)sc1N(C)C(=O)[C@@H](C)N(C)C(=O)OCc1ccccc1 [Compound 439] |  |  | < 80 | < 80 | 
CCN(C(=O)OC(C)(C)C)c1sc(-c2cccnc2)nc1C [Compound 12, Ethyl-(4-methyl-2-pyridin-3-yl-thiazol-5-yl)-carbamic acid tert-butyl ester] | 80 to 100 | 80 to 100 |  |  | 
CSCC(C)C(=O)N(C(=O)C(C)CSC)c1sc(-c2cncc(F)c2)nc1C (stereo not drawn) [Compound 188] | 80 to 100 | 80 to 100 |  |  | 
Cc1nc(-c2cncc(F)c2)sc1N(C)C(=O)CC(C)[S+](C)[O-] (stereo not drawn) [Compound 285] | 80 to 100 | 80 to 100 |  |  | 
CSC(C)CC(=O)N(C)c1sc(-c2cncc(F)c2)nc1Cl (stereo not drawn) [Compound 442] |  |  | 80 to 100 | 80 to 100 | 
CSCCC(=O)N(C)c1sc(-c2cncc(C#N)c2)nc1Cl [Compound 508] |  |  | < 80 | 80 to 100 | 
CSCCNC(=S)Nc1sc(-c2cncc(F)c2)nc1Cl [Compound 450] |  |  | 80 to 100 | 80 to 100 | 
CN(C(=O)OC(C)(C)C)c1sc(-c2cccnc2)nc1C(F)(F)F [Compound 10, methyl-(2-pyridin-3-yl-4-trifluoromethyl-thiazol-5-yl)carbamic acid tert-butyl ester] | < 80 | 80 to 100 |  |  | 
Cc1cc(C(=O)N(C)c2sc(-c3cccnc3)nc2Cl)ccn1 [Compound 407] | 80 to 100 | < 80 |  |  | 
CSCCC(=O)N(C)c1sc(-c2cccnc2)nc1C [Compound 35] | 80 to 100 | 80 to 100 |  |  | 
CSCC(C)C(=O)N(C(=O)C(C)C)c1sc(-c2cncc(S(C)(=O)=O)c2)nc1C (stereo not drawn) [Compound 152] | < 80 | < 80 |  |  | 
CCN(C(=O)CC(C)SC)c1sc(-c2cncc(F)c2)nc1C (stereo not drawn) [Compound 300] | 80 to 100 | < 80 |  |  | 
CCN(C(=O)CC(C)(C)SC)c1sc(-c2cccnc2)nc1Cl [Compound 490] |  |  | 80 to 100 | < 80 | 
C/C=C/CN(C(=O)C(C)CSC)c1sc(-c2cccnc2)nc1C (stereo not drawn) [Compound 466] |  |  | 80 to 100 | < 80 | 
Cc1nc(-c2cccnc2)sc1N(C)C(=O)C(C)C[S+](C)[O-] (stereo not drawn) [Compound 87] | 80 to 100 | 80 to 100 |  |  | 
C/C=C/CCC(=O)Nc1sc(-c2cccnc2)nc1C [Compound 418] | 80 to 100 | 80 to 100 |  |  | 
CNC(C)C(=O)N(C)c1sc(-c2cccnc2)nc1C (stereo not drawn) [Compound 295] | < 80 | 80 to 100 |  |  | 

Structure (SMILES) | pest or weed control at 200 ppm ([1]; green peach aphid) [%] | pest or weed control at 200 ppm ([2]; sweetpotato whitefly-crawler) [%] | pest or weed control at 200 ppm ([1]; Abbott's correction formula) [%] | pest or weed control at 200 ppm ([2]; Abbott's correction formula) [%] | further results
CCc1nc(-c2cccnc2)sc1N(C)C(=O)CCSC [Compound 47] | 80 to 100 | 80 to 100 |  |  | 
CSCC(C)(C)C(=O)Nc1sc(-c2ccc(F)nc2)nc1C [Compound 20, N-[2-(6-fluoropyridin-3-yl)-4-methyl-thiazol-5-yl]-2,2-dimethyl-3-methylsulfanyl-propionamide] | 80 to 100 | 80 to 100 |  |  | 
CC(C(=O)N(C)CC(=O)N(C)c1sc(-c2cccnc2)nc1Cl)n1cccn1 (stereo not drawn) [Compound 431] |  |  | 80 to 100 | < 80 | 
CCN(C(=O)C(C)CSC)c1sc(-c2cncc(F)c2)nc1F (stereo not drawn) [Compound 456] |  |  | 80 to 100 | < 80 | 
CN(C(=S)NCCSc1ccc(Cl)cc1)c1sc(-c2cccnc2)nc1Cl [Compound 512] |  |  | < 80 | 80 to 100 | 
CSCC(=O)N(C)c1sc(-c2cccnc2)nc1C [Compound 367] | 80 to 100 | < 80 |  |  | 
CN(C(=O)C1CCOC1)c1sc(-c2cccnc2)nc1Cl (stereo not drawn) [Compound 415] |  |  |  |  | MYZUPE 200 ppm (Corrected % Control, rating) ([1]; green peach aphid): A (80-100); BEMITA 200 ppm (Corrected % Control, rating) ([2]; sweetpotato whitefly-crawler): A (80-100)
C=CCSCC(C)C(=O)Nc1sc(-c2cccnc2)nc1C (stereo not drawn) [Compound 224] | 80 to 100 | 80 to 100 |  |  | 
CCN(C(=O)C(C)C[S+](C)[O-])c1sc(-c2cccnc2)nc1Cl (stereo not drawn) [Compound 348] | 80 to 100 | 80 to 100 |  |  | 
CSCCNC(=O)N(C)c1cnc(-c2cncc(F)c2)s1 [Compound 72, [2-(5-fluoropyridin-3-yl)-thiazol-5-yl]-1-methyl-3-(2-methylsulfanyl-ethyl)urea] | 80 to 100 | < 80 |  |  | 
Cc1nc(-c2cccnc2)sc1N(C)C(=O)c1cnco1 [Compound 343] |  |  |  |  | MYZUPE 200 ppm (Corrected % Control, rating) ([1]; green peach aphid): A (80-100); BEMITA 200 ppm (Corrected % Control, rating) ([2]; sweetpotato whitefly-crawler): B (Less than 80)
Cc1nc(-c2cccnc2)sc1N(C)C(=O)C1CCCN(C(=O)C(C)C)C1 (stereo not drawn) [Compound 410] | 80 to 100 | 80 to 100 |  |  | 
CSCCC(=O)N(C)c1sc(-c2cncc(Cl)c2)nc1Cl [Compound 500] |  |  | 80 to 100 | 80 to 100 | 
COC(=O)CCC(=O)N(C)c1sc(-c2cccnc2)nc1C [Compound 252] | 80 to 100 | 80 to 100 |  |  | 
CCN(C(=O)CCSC)c1sc(-c2cccnc2)nc1Br [Compound 458] |  |  | 80 to 100 | 80 to 100 | 
CCN(C(=O)C(C)C)c1sc(-c2cccnc2)nc1Br [Compound 457] |  |  | 80 to 100 | 80 to 100 | 
CSCCNC(=S)N(C)c1sc(-c2cncc(F)c2)nc1Cl [Compound 511] |  |  | 80 to 100 | < 80 | 
Cc1nc(-c2cccnc2)sc1NC(=O)CCC1CC1 [Compound 416] | 80 to 100 | 80 to 100 |  |  | 
Cc1nc(-c2cccnc2)sc1N(CC(C)C)C(=O)OC(C)(C)C [Compound 14, Isobutyl-(4-methyl-2-pyridin-3-yl-thiazol-5-yl)-carbamic acid tert-butyl ester] | < 80 | 80 to 100 |  |  | 
CC(CC(=O)N(C)c1sc(-c2cccnc2)nc1Cl)[S+](C)[O-] (stereo not drawn) [Compound 520] |  |  | 80 to 100 | < 80 | 
CN(C(=O)CCS(C)(=O)=O)c1sc(-c2cncc(F)c2)nc1Cl [Compound 273] | 80 to 100 | 80 to 100 |  |  | 
Cc1nc(C)n(CC(C)C(=O)N(C)c2sc(-c3cccnc3)nc2Cl)n1 (stereo not drawn) [Compound 333] |  |  |  |  | MYZUPE 200 ppm (Corrected % Control, rating) ([1]; green peach aphid): A (80-100); BEMITA 200 ppm (Corrected % Control, rating) ([2]; sweetpotato whitefly-crawler): B (Less than 80)
